Experimental findings from US4798827A, “Synergistin derivatives and pharmaceutical compositions which contain them” (Rhone-Poulenc Sante, priority 1986, dated 1989) are described below.

Numbered stars: 1 amine (or outer) side, 2 acyl side, 3 side chain; on linkers, the order of the positions; unused ones are H or OH. Bridge positions count the residues as written; N and C are the ends. Square brackets hold non-standard residues; d marks the D form. Peptide text beside a SMILES is read from it. * marks the point of attachment. X1 = O=C1C[C@@H](C(=O)[*:2])N([*:1])C[C@H]1CS[C@@H]1CN2CCC1CC2; NMePhe(4-NMe2) = CN[C@@H](Cc1ccc(N(C)C)cc1)C(=O)O; Picolinoyl(3-OH) = O=C(c1ncccc1O)*; Phg = N[C@H](C(=O)O)c1ccccc1; dAbu = CC[C@@H](N)C(=O)O

The data set can be described thus: solubility in water (as salts / hydrochlorides). The note with it: product with 0.1N hydrochloric acid and distilled water.

For the compound `CC[C@H]1NC(=O)[C@@H](NC(=O)c2ncccc2O)[C@@H](C)OC(=O)[C@H](c2ccccc2)NC(=O)[C@@H]2CC(=O)[C@H](CS[C@@H]3CN4CCC3CC4)CN2C(=O)[C@H](Cc2ccc(N(C)C)cc2)N(C)C(=O)[C@@H]2CCCN2C1=O` [Example 1, 5δ-[(3-Quinuclidinyl)thiomethyl]pristinamycin IA] ({Picolinoyl(3-OH)}-T[dAbu]P[NMePhe(4-NMe2)][X1][Phg]; ester 1-C), the “strength of aqueous solution obtained” value worked out at 5%.
